Drawing on ChEMBL document CHEMBL3112408, “1,2,3-triazole-, arylamino- and thio-substituted 1,4-naphthoquinones: potent antitumor activity, electrochemical aspects, and bioisosteric replacement of C-ring-modified lapachones” (Bioorg Med Chem, 2014), this text covers IC50 for 15 molecules.

One assay has as its system MDA-MB-435. Description: Cytotoxicity against human MDA-MB-435 cells assessed as cell viability after 72 hrs by MTT assay. Format: functional, cell-based. The settings on record: MDA-MB-435, 72 h.
Assay [1] in a line: Cytotoxicity against human HCT8 cells assessed as cell viability after 72 hrs by MTT assay. Format: functional, cell-based. Particulars: HCT-8, 72 h. In general terms: Formazan colour is commonly taken as a measure of viable cells.
The next assay relates to HCT-116. Briefly: Cytotoxicity against human HCT116 cells assessed as cell viability after 72 hrs by MTT assay. Format: functional, cell-based. The settings on record: HCT-116, 72 h.
A further assay deals with PBMC. Briefly: Cytotoxicity against human PBMC assessed as cell viability after 72 hrs by MTT assay. Format: cell-based.
The next assay concerns DU-145. Briefly: Cytotoxicity against human DU145 cells assessed as cell viability after 72 hrs by MTT assay. The assay is classed as functional, cell-based. The settings on record: DU-145, 72 h.
Assay [2] is described as follows: Cytotoxicity against human Hs578T cells assessed as cell viability after 72 hrs by MTT assay. The assay is classed as functional, cell-based. The settings on record: Hs-578T.
In the next assay the test system is L929. Briefly: Cytotoxicity against mouse L929 cells assessed as cell viability after 72 hrs by MTT assay. The assay is classed as ADME, cell-based. The settings on record: L929, 72 h.
The subject of another assay is OVCAR-8. Briefly: Cytotoxicity against human OVCAR8 cells assessed as cell viability after 72 hrs by MTT assay. The assay is classed as functional, cell-based. Particulars: OVCAR-8, 72 h.
The next assay deals with MX1. Briefly: Cytotoxicity against human MX1 cells assessed as cell viability after 72 hrs by MTT assay. Format: functional, cell-based. Particulars: MX1, 72 h.
A further assay relates to SF-295. Description: Cytotoxicity against human SF295 cells assessed as cell viability after 72 hrs by MTT assay. Format: functional, cell-based. Particulars: SF-295, 72 h.
For a further assay, the system named is MCF7. Description: Cytotoxicity against human MCF7 cells assessed as cell viability after 72 hrs by MTT assay. The assay is classed as functional, cell-based. Particulars: MCF7, 72 h.
The next assay concerns HL-60. Briefly: Cytotoxicity against human HL60 cells assessed as cell viability after 72 hrs by MTT assay. Format: functional, cell-based. The settings on record: HL-60, 72 h.
The subject of another assay is V79. Briefly: Cytotoxicity against chinese hamster V79 cells assessed as cell viability after 72 hrs by MTT assay. The settings on record: Cricetulus griseus, V79, 72 h. The assay is classed as cell-based.
Another assay relates to PC-3. Description: Cytotoxicity against human PC3 cells assessed as cell viability after 72 hrs by MTT assay. The assay is classed as functional, cell-based. Particulars: PC-3, 72 h.

Usually IC50 stands for the point on the concentration scale where inhibition reaches its midpoint. As for `CC1(C)OC2=C(C(=O)c3ccccc3C2=O)C1n1cc(-c2ccccc2)nn1` (stereo not given), the IC50 with MDA-MB-435 amounted to 4.95 µM; in [1] it was 9.07 µM; with HCT-116, 8.27 µM; in the assay with PBMC, 8.02 µM; in the assay on DU-145 it was 4.68 µM; in [2] it was 5.76 µM. The IC50 in the assay on L929 was 8.4 µM; in the assay on OVCAR-8, 7.22 µM; in the assay with MX1 it was 5.92 µM; in the assay with SF-295 it was 3.44 µM; in the assay on MCF7, 6.95 µM; in the assay on HL-60 it was 4.34 µM. The IC50 in the assay on V79 amounted to 7.62 µM; with PC-3 it was 5.82 µM.
Consider `CCCCCCc1cn(C2C3=C(OC2(C)C)C(=O)c2ccccc2C3=O)nn1` (stereo not given), for which the IC50 in the assay on MDA-MB-435 stood at 3.98 µM; in assay [1], 5.32 µM; in the assay with HCT-116 it was 4.88 µM; with PBMC it was 9.01 µM; in the assay on DU-145, 9.88 µM; in assay [2], 8.28 µM. Further, the IC50 in the assay with L929 worked out at 8.3 µM; in the assay with OVCAR-8, 5.35 µM; in the assay with MX1, 7.33 µM; in the assay with SF-295 it was 11.2 µM; with MCF7, 9.41 µM; in the assay with HL-60 it was 1.9 µM. The results for the IC50 with V79 and in the assay on PC-3 were 7.22 µM and 10.2 µM, respectively.
With `CC1(C)OC2=C(C(=O)c3ccccc3C2=O)C1n1cc(C2CCCCC2)nn1` (stereo not given), the half-inhibitory concentration (IC50) in the assay with MDA-MB-435 was 2.76 µM; in assay [1] it was 6.7 µM; with HCT-116, 5.51 µM; with PBMC, 7.36 µM; in the assay with DU-145, 5.48 µM; in assay [2], 4.95 µM. Moreover, the IC50 with L929 was found to be 6.62 µM; in the assay with OVCAR-8 it was 5.38 µM; in the assay on MX1 it was 4.21 µM; in the assay with SF-295, 3.18 µM; in the assay on MCF7 it was 5.78 µM; with HL-60, 2.7 µM. For the same molecule, the IC50 with V79 turned out to be 6.12 µM; in the assay on PC-3 it was 4.29 µM.
In the case of `O=C1C=C(NCc2cn(CN3C(=O)c4ccccc4C3=O)nn2)C(=O)c2ccccc21`, the IC50 (with MDA-MB-435; in assay [1]; in the assay on HCT-116; in the assay on PBMC; in the assay with DU-145; in [2]) was over 12 µM in each case. Further, the IC50 in the assay with L929, with OVCAR-8, in the assay with MX1, with SF-295, in the assay with MCF7 and with HL-60 was over 12 µM each time. Besides, the IC50 in the assay with V79 and in the assay with PC-3 was over 12 µM throughout.
Regarding `O=C1C=C(NCc2cn(CCN3C(=O)c4ccccc4C3=O)nn2)C(=O)c2ccccc21`, the IC50 (in the assay with MDA-MB-435; in assay [1]; in the assay on HCT-116; with PBMC; in the assay with DU-145; in assay [2]) was over 11 µM throughout. The IC50 with L929, in the assay on OVCAR-8, in the assay with MX1, in the assay on SF-295, with MCF7 and in the assay on HL-60 was over 11 µM throughout. For the same molecule, the IC50 with V79 and in the assay with PC-3 was over 11 µM throughout.
For the molecule `O=C1C=C(NCc2cn(CCCN3C(=O)c4ccccc4C3=O)nn2)C(=O)c2ccccc21`, the IC50 (in the assay with MDA-MB-435; in [1]; in the assay on HCT-116; with PBMC; in the assay with DU-145; in [2]) was over 11 µM in each case. Also, the IC50 in the assay on L929, in the assay with OVCAR-8, in the assay with MX1, in the assay on SF-295, with MCF7 and with HL-60 was over 11 µM in each case. Further, the IC50 in the assay on V79 and with PC-3 was over 11 µM each time.
In the case of `O=C1C=C(NCc2cn(CCCCN3C(=O)c4ccccc4C3=O)nn2)C(=O)c2ccccc21`, the IC50 (in the assay with MDA-MB-435; in [1]; with HCT-116; in the assay with PBMC; with DU-145; in assay [2]) was over 10 µM each time. In addition, the IC50 with L929, in the assay on OVCAR-8, in the assay with MX1, in the assay with SF-295, with MCF7 and in the assay on HL-60 was over 10 µM each time. For the same molecule, the IC50 in the assay on V79 and in the assay with PC-3 was over 10 µM throughout.
Take `O=C1C(Cl)=C(NCc2cn(CN3C(=O)c4ccccc4C3=O)nn2)C(=O)c2ccccc21`: the IC50 (in the assay on MDA-MB-435; in [1]; with HCT-116; in the assay with PBMC; in the assay with DU-145; in assay [2]) was over 11 µM each time. Further, the IC50 in the assay on L929, with OVCAR-8, with MX1, in the assay on SF-295, in the assay on MCF7 and in the assay on HL-60 was over 11 µM throughout. The IC50 with V79 and in the assay with PC-3 was over 11 µM each time.
Consider `O=C1C(Cl)=C(NCc2cn(CCN3C(=O)c4ccccc4C3=O)nn2)C(=O)c2ccccc21`, for which the IC50 (in the assay on MDA-MB-435; in assay [1]; in the assay with HCT-116; in the assay on PBMC; in the assay with DU-145; in assay [2]) was over 10 µM in each case. The IC50 in the assay with L929, in the assay on OVCAR-8, in the assay with MX1, in the assay with SF-295, in the assay with MCF7 and with HL-60 was over 10 µM throughout. Further, the IC50 with V79 and in the assay on PC-3 was over 10 µM each time.
For the molecule `O=C1C(Cl)=C(NCc2cn(CCCN3C(=O)c4ccccc4C3=O)nn2)C(=O)c2ccccc21`, the IC50 (with MDA-MB-435; in [1]; with HCT-116; in the assay with PBMC; in the assay on DU-145; in [2]) was over 10 µM in each case. In addition, the IC50 with L929, with OVCAR-8, with MX1, with SF-295, in the assay on MCF7 and in the assay on HL-60 was over 10 µM each time. Moreover, the IC50 in the assay on V79 and in the assay on PC-3 was over 10 µM each time.
For the molecule `O=C1C(Br)=C(NCc2cn(CN3C(=O)c4ccccc4C3=O)nn2)C(=O)c2ccccc21`, the IC50 (in the assay with MDA-MB-435; in [1]; with HCT-116; in the assay on PBMC; with DU-145; in [2]) was over 10 µM in each case. For the same molecule, the IC50 in the assay on L929, with OVCAR-8, in the assay on MX1, in the assay with SF-295, in the assay with MCF7 and in the assay on HL-60 was over 10 µM in each case. In addition, the IC50 in the assay on V79 and in the assay with PC-3 was over 10 µM in each case.
Take `O=C1C(Br)=C(NCc2cn(CCN3C(=O)c4ccccc4C3=O)nn2)C(=O)c2ccccc21`: the IC50 (in the assay on MDA-MB-435; in [1]; with HCT-116; in the assay on PBMC; with DU-145; in assay [2]) was over 9 µM in each case. In addition, the IC50 in the assay on L929, in the assay with OVCAR-8, in the assay with MX1, in the assay on SF-295, in the assay on MCF7 and in the assay on HL-60 was over 9 µM in each case. Moreover, the IC50 with V79 and in the assay with PC-3 was over 9 µM in each case.
On to `O=C1C(Br)=C(NCc2cn(CCCN3C(=O)c4ccccc4C3=O)nn2)C(=O)c2ccccc21`, for which the IC50 (in the assay with MDA-MB-435; in assay [1]; in the assay with HCT-116; in the assay with PBMC; with DU-145; in assay [2]) was over 9 µM in each case. Further, the IC50 in the assay with L929, in the assay on OVCAR-8, in the assay on MX1, in the assay on SF-295, in the assay with MCF7 and in the assay on HL-60 was over 9 µM in each case. The IC50 with V79 and in the assay on PC-3 was over 9 µM each time.
As for `O=C1C=C(NCc2cn(-c3cccc([N+](=O)[O-])c3)nn2)C(=O)c2ccccc21`, the IC50 (in the assay on MDA-MB-435; in [1]; with HCT-116; in the assay with PBMC; in the assay on DU-145; in [2]) was over 13 µM in each case. For the same molecule, the IC50 with L929, in the assay with OVCAR-8, in the assay with MX1, with SF-295, in the assay with MCF7 and with HL-60 was over 13 µM in each case. Besides, the IC50 with V79 and in the assay with PC-3 was over 13 µM each time.
For `O=C1C(Cl)=C(NCc2cn(CCCCN3C(=O)c4ccccc4C3=O)nn2)C(=O)c2ccccc21`, the IC50 (with MDA-MB-435; in assay [1]; in the assay with HCT-116; with PBMC; in the assay on DU-145; in [2]) was over 10 µM each time. Besides, the IC50 in the assay with L929, with OVCAR-8, in the assay on MX1, with SF-295, with MCF7 and in the assay on HL-60 was over 10 µM throughout. Moreover, the IC50 in the assay with V79 and with PC-3 was over 10 µM throughout.
